Inconclusive results and toxic doses are left out.
Tested on: BDF1 mice, L1210 6-MP/6-TG resistant leukemia ip, survival T/C
Test: NCI In Vivo Anticancer Drug Screen. Data for tumor model L1210 Leukemia resistant to 6-MP and 6-Thioguanine; NSC 755, NSC 752 (intraperitoneal) in B6D2F1 (BDF1) mice
Conditions: endpoint: mean survival time, higher = longer survival
Experimental: The antitumor activity of compounds was measured in mice bearing transplantable tumors. Survival or tumor size were measured and the results are expressed as the measurement made in the treated group (T) divided by the measurement made in the vehicle treated control group (C). The tumor model used in this assay is L1210 Leukemia resistant to 6-MP and 6-Thioguanine; NSC 755, NSC 752 (intraperitoneal) in B6D2F1 (BDF1) mice

[1] = dose: 7.5 mg/kg/injection, schedule: Q01DX Z (ip), vehicle: carboxymethylcellulose (CMC)
[2] = dose: 10.0 mg/kg/injection, schedule: Q01DX Z (ip), vehicle: carboxymethylcellulose (CMC)

Nc1nc(=S)c2ncn(C3OC(CO)C(O)C3O)c2[nH]1 (stereo unspecified)
T/C (dose: 3.75 mg/kg/injection, schedule: Q01DX Z (ip), vehicle: carboxymethylcellulose (CMC)): 96 % of control | T/C (dose: 5.0 mg/kg/injection, schedule: Q01DX Z (ip), vehicle: carboxymethylcellulose (CMC)): 93 % of control | T/C [1]: 107 % of control | T/C [2]: 93 % of control

Nc1nc(=S)c2[nH]cnc2[nH]1
T/C (dose: 0.37 mg/kg/injection, schedule: Q01DX Z (ip), vehicle: carboxymethylcellulose (CMC)): 123 % of control | T/C (dose: 0.5 mg/kg/injection, schedule: Q01DX Z (ip), vehicle: carboxymethylcellulose (CMC)): 92 % of control | T/C (dose: 0.75 mg/kg/injection, schedule: Q01DX Z (ip), vehicle: carboxymethylcellulose (CMC)): 101 % of control | T/C (dose: 1.0 mg/kg/injection, schedule: Q01DX Z (ip), vehicle: carboxymethylcellulose (CMC)): 103 % of control | T/C (dose: 1.25 mg/kg/injection, schedule: Q01DX Z (ip), vehicle: carboxymethylcellulose (CMC)): 104 % of control | T/C (dose: 2.5 mg/kg/injection, schedule: Q01DX Z (ip), vehicle: carboxymethylcellulose (CMC)): 95 % of control

Nc1ncnc2[nH]ncc12
T/C [1]: 105 % of control | T/C [2]: 92 % of control | T/C (dose: 15.0 mg/kg/injection, schedule: Q01DX Z (ip), vehicle: carboxymethylcellulose (CMC)): 94 % of control | T/C (dose: 25.0 mg/kg/injection, schedule: Q01DX Z (ip), vehicle: carboxymethylcellulose (CMC)): 97 % of control

Nc1ncnc2c1ncn2C(C=O)OC(C=O)CO (stereo unspecified)
T/C (dose: 4.0 mg/kg/injection, schedule: Q01DX Z (ip), vehicle: carboxymethylcellulose (CMC)): 97 % of control | T/C (dose: 6.0 mg/kg/injection, schedule: Q01DX Z (ip), vehicle: carboxymethylcellulose (CMC)): 102 % of control | T/C (dose: 8.0 mg/kg/injection, schedule: Q01DX Z (ip), vehicle: carboxymethylcellulose (CMC)): 106 % of control | T/C (dose: 12.0 mg/kg/injection, schedule: Q01DX015 (ip), vehicle: saline): 170 % of control | T/C (dose: 12.0 mg/kg/injection, schedule: Q01DX Z (ip), vehicle: saline): 124 % of control | T/C (dose: 13.0 mg/kg/injection, schedule: Q01DX015 (ip), vehicle: saline): 171 % of control | T/C (dose: 24.0 mg/kg/injection, schedule: Q01DX015 (ip), vehicle: saline): 189 % of control | T/C (dose: 48.0 mg/kg/injection, schedule: Q01DX015 (ip), vehicle: saline): 111 % of control | T/C (dose: 50.0 mg/kg/injection, schedule: Q01DX Z (ip), vehicle: saline): 88 % of control

O=C1C(NC(=O)C2CCCCC2)=C(N2CC2)C(=O)C(NC(=O)C2CCCCC2)=C1N1CC1
T/C (dose: 31.0 mg/kg/injection, schedule: Q01DX Z (ip), vehicle: carboxymethylcellulose (CMC)): 99 % of control | T/C (dose: 62.5 mg/kg/injection, schedule: Q01DX Z (ip), vehicle: carboxymethylcellulose (CMC)): 101 % of control | T/C (dose: 93.0 mg/kg/injection, schedule: Q01DX Z (ip), vehicle: carboxymethylcellulose (CMC)): 93 % of control | T/C (dose: 125.0 mg/kg/injection, schedule: Q01DX Z (ip), vehicle: carboxymethylcellulose (CMC)): 87 % of control | T/C (dose: 187.0 mg/kg/injection, schedule: Q01DX Z (ip), vehicle: carboxymethylcellulose (CMC)): 92 % of control | T/C (dose: 250.0 mg/kg/injection, schedule: Q01DX Z (ip), vehicle: carboxymethylcellulose (CMC)): 90 % of control

CSc1ncnc2c1ncn2CO
T/C (dose: 50.0 mg/kg/injection, schedule: Q01DX009 (ip), vehicle: other): 104 % of control | T/C (dose: 100.0 mg/kg/injection, schedule: Q01DX009 (ip), vehicle: other): 110 % of control

From PubChem BioAssay AID308 (DTP/NCI, 2004)
